# Assay results reported in patent US12023319B2, “Carboxylic acid aromatic amides” (priority 2016, dated 2024).
# Target: T1, human Bradykinin B1 receptor (Homo sapiens, UniProt P46663)
# T1 construct: host or cells: CHO-K1
# T1 sequence (P46663 1-353): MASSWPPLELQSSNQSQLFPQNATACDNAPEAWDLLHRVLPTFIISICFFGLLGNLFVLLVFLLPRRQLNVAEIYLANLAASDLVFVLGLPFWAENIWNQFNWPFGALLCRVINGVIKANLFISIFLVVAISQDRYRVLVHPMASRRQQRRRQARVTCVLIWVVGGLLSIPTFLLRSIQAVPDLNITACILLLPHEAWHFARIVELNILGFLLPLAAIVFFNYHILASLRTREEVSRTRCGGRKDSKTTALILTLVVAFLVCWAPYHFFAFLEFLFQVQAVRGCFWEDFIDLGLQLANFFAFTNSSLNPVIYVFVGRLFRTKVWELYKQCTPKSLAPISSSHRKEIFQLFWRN
# Assay: Calcium flux assay (FLIPR), CHO-K1 cells expressing human Bradykinin B1 receptor, absence of 0.1% BSA (hB1 free IC50)
# Format: cell-based
# Settings: absence of 0.1% BSA in assay buffer
# How it was run: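 Peak FLIPR fluorescence (538 nm) after B1 agonist peptide addition gave IC50s, scaled between DMSO and full block by 20 µM Lys-(Des-Arg-Leu)-Bradykinin. Compounds were preincubated 30 min at 28° C with calcium-dye-loaded CHO-K1 cells expressing human B1, at 8 concentrations in triplicate, 1% DMSO final.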
row,SMILES,IC50
1,"CCCn1cc(-c2ccc(NC(=O)C3(c4ccc(C(F)(F)F)cc4F)CC3)cc2C(=O)O)cn1 [Example 114, 5-[({1-[2-Fluoro-4-(trifluoromethyl)phenyl]cyclopropyl}carbonyl)amino]-2-(1-propyl-1H-pyrazol-4-yl)benzoic acid]",85 nM
2,"O=C(O)c1cc(NC(=O)C2(c3ccc(OC(F)(F)F)cc3F)CC2)cc(F)c1-c1cnn(CC2CC2)c1 [Example 127, 2-[1-(Cyclopropylmethyl)-1H-pyrazol-4-yl]-3-fluoro-5-[({1-[2-fluoro-4-(trifluoromethoxy)phenyl]cyclopropyl}carbonyl)amino]benzoic acid]",11 nM
3,"CC(C)n1cc(-c2c(F)cc(NC(=O)C3(c4ccc(Cl)cc4F)CC3)cc2C(=O)O)cn1 [Example 140, 5-({[1-(4-Chloro-2-fluorophenyl)cyclopropyl]carbonyl}amino)-3-fluoro-2-(1-isopropyl-1H-pyrazol-4-yl)benzoic acid]",21 nM
4,"O=C(O)c1cc(NC(=O)C2(c3ccc(C(F)(F)F)cc3F)CC2)cc(Cl)c1-c1ccc(C(F)(F)F)nc1 [Example 104, 3-Chloro-5-[({1-[2-fluoro-4-(trifluoromethyl)phenyl]cyclopropyl}carbonyl)amino]-2-[6-(trifluoromethyl)pyridin-3-yl]benzoic acid]",130 nM
5,"CC1CCC(C2(C(=O)Nc3cc(F)c(-c4cnn(C5CCC5)c4)c(C(=O)O)c3)CC2)CC1 (mixture of isomers) [Example 144, 2-(1-Cyclobutyl-1H-pyrazol-4-yl)-3-fluoro-5-({[1-(4-methylcyclohexyl)cyclopropyl]carbonyl}amino)benzoic acid]",320 nM
6,"CCC(F)(F)c1ccc(-c2ccc(NC(=O)C3(c4ccc(C(F)(F)F)cc4)CC3)cc2C(=O)O)cn1 [Example 21, 2-[6-(1,1-Difluoropropyl)pyridin-3-yl]-5-[({1-[4-(trifluoromethyl)phenyl]cyclopropyl}carbonyl)amino]benzoic acid]",710 nM
7,"COCCn1cc(-c2ccc(NC(=O)C3(c4ccc(C(F)(F)F)cc4F)CC3)cc2C(=O)O)cn1 [Example 155, 5-[({1-[2-Fluoro-4-(trifluoromethyl)phenyl]cyclopropyl}carbonyl)amino]-2-[1-(2-methoxyethyl)-1H-pyrazol-4-yl]benzoic acid]",270 nM
8,"CCC(F)(F)c1ccc(-c2c(C)cc(NC(=O)C3(c4ccc(OC(F)(F)F)cc4F)CC3)cc2C(=O)O)cn1 [Example 113, 2-[6-(1,1-Difluoropropyl)pyridin-3-yl]-5-[({1-[2-fluoro-4-(trifluoromethoxy)phenyl]cyclopropyl}carbonyl)amino]-3-methylbenzoic acid]",120 nM
9,"CC(C)(C)n1cc(-c2ccc(NC(=O)C3(c4ccc(C(F)(F)F)cc4F)CC3)cc2C(=O)O)cn1 [Example 72, 2-(1-tert-Butyl-1H-pyrazol-4-yl)-5-[({1-[2-fluoro-4-(trifluoromethyl)phenyl]cyclopropyl}carbonyl)amino]benzoic acid]",28 nM
10,"O=C(O)c1cc(NC(=O)C2(c3ccc(OC(F)(F)F)cc3F)CC2)ccc1-c1cnn(C2CCCCC2)c1 [Example 123, 2-(1-Cyclohexyl-1H-pyrazol-4-yl)-5-[({1-[2-fluoro-4-(trifluoromethoxy)phenyl]cyclopropyl}carbonyl)amino]benzoic acid]",22 nM
11,"CC(F)(F)c1ccc(-c2ccc(NC(=O)C3(c4ccc(OC(F)(F)F)cc4F)CC3)cc2C(=O)O)cn1 [Example 32, 2-[6-(1,1-Difluoroethyl)pyridin-3-yl]-5-[({1-[2-fluoro-4-(trifluoromethoxy)phenyl]cyclopropyl}carbonyl)amino]benzoic acid]",190 nM
12,"CC[C@H](C)n1cc(-c2ccc(NC(=O)C3(c4ccc(C(F)(F)F)cc4F)CC3)cc2C(=O)O)cn1 [Example 131, 2-{1-[(2S)-Butan-2-yl]-1H-pyrazol-4-yl}-5-[({1-[2-fluoro-4-(trifluoromethyl)phenyl]cyclopropyl}carbonyl)amino]benzoic acid]",50 nM

# Further compounds by falling IC50, results first:
row,IC50,SMILES
1,2700 nM,"O=C(O)c1c(-c2cnn(C3CCC3)c2)ccc(NC(=O)C2(c3ccc(C(F)(F)F)cc3F)CC2)c1F [Example 98, 6-(1-Cyclobutyl-1H-pyrazol-4-yl)-2-fluoro-3-[({1-[2-fluoro-4-(trifluoromethyl)phenyl]cyclopropyl}carbonyl)amino]benzoic acid]"
2,2400 nM,"CCC(F)(F)c1ccc(-c2ccc(NC(=O)C3(c4ccc(F)cc4F)CC3)cc2C(=O)O)cn1 [Example 23, 5-({[1-(2,4-Difluorophenyl)cyclopropyl]carbonyl}amino)-2-[6-(1,1-difluoropropyl)pyridin-3-yl]benzoic acid]"
3,1100 nM,"O=C(O)c1cc(NC(=O)C2(c3c(F)cccc3F)CC2)ccc1-c1cnn(C2CCC2)c1 [Example 59, 2-(1-Cyclobutyl-1H-pyrazol-4-yl)-5-({[1-(2,6-difluorophenyl)cyclopropyl]carbonyl}amino)benzoic acid]"
4,770 nM,"Cc1cc(NC(=O)C2(c3ccc(C(F)(F)F)cc3F)CC2)cc(C(=O)O)c1-c1ccc(C(F)F)nc1 [Example 109, 2-[6-(Difluoromethyl)pyridin-3-yl]-5-[({1-[2-fluoro-4-(trifluoromethyl)phenyl]cyclopropyl}carbonyl)amino]-3-methylbenzoic acid]"
5,620 nM,"O=C(O)c1cc(NC(=O)C2(c3ccc(C(F)(F)F)cc3F)CC2)ccc1-n1cc(C2CCC2)cn1 [Example 129, 2-(4-Cyclobutyl-1H-pyrazol-1-yl)-5-[({1-[2-fluoro-4-(trifluoromethyl)phenyl]cyclopropyl}carbonyl)amino]benzoic acid]"
6,62 nM,"O=C(O)c1cc(NC(=O)C2(c3cc(C(F)(F)F)ccc3F)CC2)ccc1-c1cnn(C2CCC2)c1 [Example 60, 2-(1-Cyclobutyl-1H-pyrazol-4-yl)-5-[({1-[2-fluoro-5-(trifluoromethyl)phenyl]cyclopropyl}carbonyl)amino]benzoic acid]"
7,28 nM,"CCn1cc(-c2ccc(NC(=O)C3(c4ccc(OC(F)(F)F)cc4F)CC3)cc2C(=O)O)cn1 [Example 69, 2-(1-Ethyl-1H-pyrazol-4-yl)-5-[({1-[2-fluoro-4-(trifluoromethoxy)phenyl]cyclopropyl}carbonyl)amino]benzoic acid]"
8,25 nM,"O=C(O)c1cc(NC(=O)C2(c3ccc(C(F)(F)F)cc3F)CC2)ccc1-c1cnn(CC2CCC2)c1 [Example 119, 2-[1-(Cyclobutylmethyl)-1H-pyrazol-4-yl]-5-[({1-[2-fluoro-4-(trifluoromethyl)phenyl]cyclopropyl}carbonyl)amino]benzoic acid]"
9,15 nM,"CCc1ccc(-c2ccc(NC(=O)C3(c4ccc(OC(F)(F)F)cc4F)CC3)cc2C(=O)O)cn1 [Example 161, 2-(6-Ethylpyridin-3-yl)-5-[({1-[2-fluoro-4-(trifluoromethoxy)phenyl]cyclopropyl}carbonyl)amino]benzoic acid]"
10,13 nM,"Cc1ccc(C2(C(=O)Nc3ccc(-c4cnc(C5CCC5)s4)c(C(=O)O)c3)CC2)c(F)c1 [Example 147, 2-(2-Cyclobutyl-1,3-thiazol-5-yl)-5-({[1-(2-fluoro-4-methylphenyl)cyclopropyl]carbonyl}amino)benzoic acid]"
11,8.1 nM,"CC1(Cn2cc(-c3ccc(NC(=O)C4(c5ccc(OC(F)(F)F)cc5F)CC4)cc3C(=O)O)cn2)CC1 [Example 152, 5-[({1-[2-Fluoro-4-(trifluoromethoxy)phenyl]cyclopropyl}carbonyl)amino]-2-{1-[(1-methylcyclopropyl)methyl]-1H-pyrazol-4-yl}benzoic acid]"
